According to patent US20120269870A1, “SWITCHABLE POLYMERS AND SURFACES WITH REVERSIBLY SWITCHABLE PROPERTIES” (University of Washington through its Center for …, priority 2011, published 2012):

Test: Kinetic study between CB—OH and CB-Ring by 1H NMR
Format: physicochemical
Details: for half-life of CB-Ring (hydrolysis to CB—OH): buffer
Description: Kinetic study between CB—OH and CB-Ring. The equilibrium conversion between the CB—OH and CB-Ring was monitored by ^1H NMR at various time points. To monitor the formation of CB-Ring, CB—OH powder was initially dissolved in TFA-d at a concentration of 0.2 M. The conversion from CB-Ring to CB—OH was studied by dissolving CB-Ring in either pH 7.3 or pH 10 buffer at a concentration of 0.2 M. These two buffers were made from 200 mM Na2CO3 in D2O and were titrated with DCl. Conversion was calculated based on the ratio of the characteristic peak for CB-Ring (1H, CH2═C(CH3)COOCH2CH(O—)CH2—) and a common peak of both structures (6H, —CH2N(CH3)2CH2—). In FIG. 5, the final conversion within 160 min was about 93% for all three conditions investigated. Because the integration error for ^1H NMR can be as large as 10%, a value of 93% essentially represented an almost full conversion.
Kinetic study between CB—OH and CB-Ring in acetic acid/pH=7.3 buffer. ^1H NMR was used to monitor the equilibrium conversion between the CB—OH and CB-Ring. CB—OH monomer was initially dissolved in [D]acetic acid at a concentration of 0.2 M. At various time points, the spectra were collected, and composition for the formed CB-Ring was calculated based on the ratio of the characteristic peaks for CB-Ring and CB—OH (FIG. 16). The equilibrated product (a mixture of CB-Ring and CB—OH) in [D]acetic acid was precipitated in ethyl ether, vacuum dried, and placed into pH=7.3 buffer made from 200 mM Na2CO3 in D2O titrated with DCl. CB-Ring was hydrolyzed to CB—OH at this condition and the composition for the CB-Ring at various time points were measured (FIG. 16).

Row | Structure (SMILES) | half-life of CB-Ring (hydrolysis to CB—OH) (pH 7) | half-life of CB-Ring (hydrolysis to CB—OH) (pH 10) [min] | final conversion to CB—OH within 160 min (pH 7.3 buffer (200 mM Na2CO3 in D2O titrated with DCl)) | time to nearly full conversion (hydrolysis) of CB-Ring back to CB—OH (pH 7.3 buffer, product equilibrated 40 h in [D]HAc) | time to complete conversion to the zwitterionic form (pH 10) | final conversion to CB—OH within 160 min (pH 10 buffer (200 mM Na2CO3 in D2O titrated with DCl)) | conversion of CB—OH to CB-ring (in words) (TFA, 1 h) | time to full conversion into the CB-Ring structure (TFA-d) [h] | half-life at 0.2 M (TFA-d solution, acidic environment, TFA-d / TFA, read-out: half-life of CB—OH (conversion to CB-Ring)) [min] | final conversion to CB-Ring within 160 min (TFA-d, 0.2 M) | conversion of CB—OH to CB-Ring ([D]HAc (acetic acid), 0.2 M, 20 h) [%]
1 | C=C(C)C(=O)OCC1C[N+](C)(C)CC(=O)O1 (centres unmarked) [CB-Ring, 2-(Methacryloyloxymethyl)-4,4-dimethyl-6-oxomorpholin-4-ium] | about 4 min | < 1 | about 93% | less than 10 min | less than 6 min | about 93% |  |  |  |  | 
2 | C=C(C)C(=O)OCC(O)C[N+](C)(C)CC(=O)[O-] (centres unmarked) [CB—OH, 2-((2-Hydroxy-3-(methacryloyloxy)propyl)dimethylammonio)acetate] |  |  |  |  |  |  | almost complete conversion | ≤ 2 | ~14 | about 93% | 50
